Source: ChEMBL document CHEMBL1201862, “PubChem BioAssay data set” (2004)
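Tested at 5 concentrations; 48 h exposure; 96-well plates; endpoints linearly interpolated, else capped at highest concentration. Here, GI50 denotes the concentration required for 50% inhibition of growth.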 Active and inactive are the calls of the source. No stated cut-off is given here; in the data, active = GI50 up to about 1.1 µM and inactive = higher.

Key:
Assay in all cases: growth of human tumour cells (NCI), 48 h
[1] = test system: COLO 205
[2] = test system: EKVX
[3] = test system: 786-0
[4] = test system: TK-10
[5] = test system: SF-539
[6] = test system: OVCAR-4
[7] = test system: CAKI-1
[8] = test system: HCT-15
[9] = test system: NCI-H460
[10] = test system: HL-60
[11] = test system: HCT-116
[12] = test system: SF-268
[13] = test system: HOP-92
[14] = test system: SK-MEL-28
[15] = test system: SR

Compound	GI50 [1]	GI50 [2]	GI50 [3]	GI50 [4]	GI50 [5]	GI50 [6]	GI50 [7]	GI50 [8] [µM]	GI50 [9]	GI50 [10]	GI50 [11]	GI50 [12]	GI50 [13]	GI50 [14]	GI50 [15]
Cc1cccc(NC(=O)/C(=N\NC(C)(C)C)C2NC(=S)NC2=O)c1C (configuration not stated)	> 100 µM (inactive)	59.6 µM (inactive)	> 100 µM (inactive)	> 100 µM (inactive)	> 100 µM (inactive)	> 100 µM (inactive)	15.4 µM (inactive)	> 100	> 100 µM (inactive)	> 100 µM (inactive)	> 100 µM (inactive)	–	–	–	–
CC1(C)CC23C(=O)N(c4ccccc4)C(Nc4ccccc4)=NC2=CC(C#N)=C(C#N)C3O1 (configuration not stated)	39.9 µM (inactive)	> 100 µM (inactive)	> 100 µM (inactive)	> 100 µM (inactive)	34.8 µM (inactive)	22.6 µM (inactive)	23.2 µM (inactive)	64.9	43.8 µM (inactive)	27.4 µM (inactive)	89.5 µM (inactive)	> 100 µM (inactive)	11.2 µM (inactive)	> 100 µM (inactive)	–
CC1=NN(C(=O)Cc2ccccc2)C(=O)/C1=C/c1c(O)ccc2ccccc12	> 100 µM (inactive)	> 100 µM (inactive)	83.9 µM (inactive)	56.9 µM (inactive)	29.2 µM (inactive)	78.9 µM (inactive)	92.5 µM (inactive)	2.21	69 µM (inactive)	49.2 µM (inactive)	49.1 µM (inactive)	55.5 µM (inactive)	–	40.7 µM (inactive)	45.7 µM (inactive)
C[C@]12CCC(=O)C=C1CC[C@@H]1C2CC[C@]2(C)c3nn(-c4ccccc4)nc3CC12 (some centres not stated)	> 100 µM (inactive)	> 100 µM (inactive)	> 100 µM (inactive)	> 100 µM (inactive)	> 100 µM (inactive)	> 100 µM (inactive)	–	> 100	> 100 µM (inactive)	> 100 µM (inactive)	> 100 µM (inactive)	> 100 µM (inactive)	> 100 µM (inactive)	> 100 µM (inactive)	–
BrC1=CC=C2NCCCCCC/N=C3\C=CC(Br)=CC=C3NCCCCCC/N=C\2C=C1	–	> 25.5 µM (inactive)	> 25.5 µM (inactive)	> 25.5 µM (inactive)	> 25.5 µM (inactive)	> 25.5 µM (inactive)	> 25.5 µM (inactive)	> 25.5	> 25.5 µM (inactive)	> 25.5 µM (inactive)	> 25.5 µM (inactive)	> 25.5 µM (inactive)	> 25.5 µM (inactive)	> 25.5 µM (inactive)	–
CCOc1ccc(/N=C/c2ccc3ccccc3n2)cc1	> 100 µM (inactive)	> 100 µM (inactive)	> 100 µM (inactive)	> 100 µM (inactive)	> 100 µM (inactive)	> 100 µM (inactive)	> 100 µM (inactive)	> 100	> 100 µM (inactive)	> 47.1 µM (inactive)	> 100 µM (inactive)	> 100 µM (inactive)	> 75.3 µM (inactive)	> 100 µM (inactive)	–
O=C(O)C1CCc2nnc(-c3ccccc3)n21 (configuration not stated)	> 100 µM (inactive)	> 100 µM (inactive)	> 100 µM (inactive)	> 100 µM (inactive)	> 100 µM (inactive)	> 100 µM (inactive)	> 100 µM (inactive)	> 100	> 100 µM (inactive)	> 100 µM (inactive)	> 100 µM (inactive)	> 100 µM (inactive)	–	> 100 µM (inactive)	> 100 µM (inactive)
O=S(O)CCCCSSCCCCSSCCCCS(=O)O	22.6 µM (inactive)	6.38 µM (inactive)	> 100 µM (inactive)	26.4 µM (inactive)	66.2 µM (inactive)	16 µM (inactive)	95.3 µM (inactive)	42.7	53.1 µM (inactive)	3.25 µM (inactive)	> 100 µM (inactive)	27.4 µM (inactive)	–	20.7 µM (inactive)	–
COC(=O)c1[nH]c(=S)[nH]c(=O)c1-c1ccc(Cl)cc1	> 50 µM (inactive)	> 50 µM (inactive)	> 50 µM (inactive)	> 50 µM (inactive)	> 50 µM (inactive)	> 50 µM (inactive)	> 12.2 µM (inactive)	> 50	> 50 µM (inactive)	> 50 µM (inactive)	> 50 µM (inactive)	> 50 µM (inactive)	> 50 µM (inactive)	> 50 µM (inactive)	> 50 µM (inactive)
CCc1cccc(CC)c1NC(=O)C1=C(C)NC(C)=C(C(=O)Nc2c(CC)cccc2CC)C1c1ccc([N+](=O)[O-])cc1	18 µM (inactive)	23.5 µM (inactive)	13.9 µM (inactive)	30.4 µM (inactive)	16.2 µM (inactive)	12.3 µM (inactive)	15.8 µM (inactive)	–	17.5 µM (inactive)	16.4 µM (inactive)	15.1 µM (inactive)	33.7 µM (inactive)	10.3 µM (inactive)	17.4 µM (inactive)	–
N/C=N/S(=O)(=O)c1ccc(NC(=O)COC(=O)c2cccc3c(=O)c4ccccc4[nH]c23)cc1	> 100 µM (inactive)	> 100 µM (inactive)	> 100 µM (inactive)	> 100 µM (inactive)	> 100 µM (inactive)	–	–	> 100	> 100 µM (inactive)	> 100 µM (inactive)	> 100 µM (inactive)	–	–	> 100 µM (inactive)	–
CC1=C(O)C(=O)C2C(=O)C1C(C)C2c1ccccc1 (configuration not stated)	> 100 µM (inactive)	> 100 µM (inactive)	> 100 µM (inactive)	> 100 µM (inactive)	> 100 µM (inactive)	> 100 µM (inactive)	> 100 µM (inactive)	> 100	–	–	–	> 100 µM (inactive)	> 100 µM (inactive)	> 100 µM (inactive)	> 100 µM (inactive)
CC(=O)Nc1ccc(/C=N\N2C(=O)c3ccccc3C2=O)cc1	–	> 100 µM (inactive)	> 100 µM (inactive)	> 100 µM (inactive)	> 100 µM (inactive)	> 100 µM (inactive)	> 100 µM (inactive)	> 100	> 100 µM (inactive)	> 100 µM (inactive)	> 100 µM (inactive)	> 100 µM (inactive)	> 100 µM (inactive)	> 100 µM (inactive)	> 100 µM (inactive)
CS(=O)(=O)CC1=Nc2nnc(CCCCCCCc3nnc4n3C(=O)C(CS(C)(=O)=O)=N4)n2C1=O	> 100 µM (inactive)	> 100 µM (inactive)	> 100 µM (inactive)	> 100 µM (inactive)	> 100 µM (inactive)	–	> 100 µM (inactive)	> 100	> 100 µM (inactive)	> 100 µM (inactive)	> 100 µM (inactive)	> 100 µM (inactive)	> 100 µM (inactive)	> 100 µM (inactive)	> 100 µM (inactive)
Cc1ccccc1NC(=O)C(=O)CC(=O)c1c(C)[n+]([O-])c2ccccc2[n+]1[O-]	> 100 µM (inactive)	> 100 µM (inactive)	> 100 µM (inactive)	–	> 100 µM (inactive)	76.9 µM (inactive)	> 100 µM (inactive)	> 100	> 100 µM (inactive)	–	> 100 µM (inactive)	> 100 µM (inactive)	–	> 100 µM (inactive)	0.0278 µM (active)
CCN1CC2(C)CC[C@@H](OC)C34[C@@H]2[C@H](OC(C)=O)C2(OCO[C@@]25C[C@H](OC)C2C[C@]3(O)[C@@H]5[C@H]2O)[C@H]14	> 100 µM (inactive)	> 100 µM (inactive)	34.2 µM (inactive)	> 100 µM (inactive)	> 100 µM (inactive)	> 100 µM (inactive)	> 100 µM (inactive)	–	> 100 µM (inactive)	> 100 µM (inactive)	> 100 µM (inactive)	> 100 µM (inactive)	> 100 µM (inactive)	> 100 µM (inactive)	> 100 µM (inactive)
CCCCOC(=O)C1C2CCC(O2)C1C(=O)OCCCC (configuration not stated)	> 42.5 µM (inactive)	> 100 µM (inactive)	> 44.8 µM (inactive)	> 100 µM (inactive)	> 76.6 µM (inactive)	> 87.1 µM (inactive)	> 100 µM (inactive)	> 65.2	4.17 µM (inactive)	> 100 µM (inactive)	> 45.6 µM (inactive)	> 55.8 µM (inactive)	> 100 µM (inactive)	> 96.8 µM (inactive)	–
O=C1Nc2ccc([N+](=O)[O-])cc2/C1=N/Nc1ccc([N+](=O)[O-])cc1	34.7 µM (inactive)	35.3 µM (inactive)	4.73 µM (inactive)	24.8 µM (inactive)	16.1 µM (inactive)	19.5 µM (inactive)	20.5 µM (inactive)	21.4	12.8 µM (inactive)	–	–	11.3 µM (inactive)	9.08 µM (inactive)	19.5 µM (inactive)	43.4 µM (inactive)
Nc1nc2c(-c3ccc([N+](=O)[O-])cc3)nnn2c2ccccc12	> 100 µM (inactive)	> 100 µM (inactive)	84.5 µM (inactive)	21 µM (inactive)	> 100 µM (inactive)	> 100 µM (inactive)	> 100 µM (inactive)	> 100	> 100 µM (inactive)	> 100 µM (inactive)	–	> 100 µM (inactive)	> 100 µM (inactive)	> 100 µM (inactive)	–
COC1OC(CO)C(O)C(OC(C)=O)C1NC(=O)N(CCCl)N=O (configuration not stated)	> 100 µM (inactive)	> 100 µM (inactive)	81.7 µM (inactive)	> 100 µM (inactive)	34.3 µM (inactive)	> 100 µM (inactive)	> 100 µM (inactive)	–	83.6 µM (inactive)	3.52 µM (inactive)	> 100 µM (inactive)	21.3 µM (inactive)	–	> 100 µM (inactive)	–
